Results on three molecules are retold here after ChEMBL document CHEMBL4837249, “Discovery of Potent Antiallergic Agents Based on an o-Aminopyridinyl Alkynyl Scaffold” (J Med Chem, 2021).

Test [1] addresses Platelet-derived growth factor receptor alpha (Homo sapiens) (UniProt P16234). The experiment in a line: Inhibition of human recombinant PDGFRalpha (550 to end) at 5 nM by radiometric scintillation counting analysis relative to control.
The target of test [2] is Protein-tyrosine kinase 6 (Homo sapiens) (UniProt Q13882). The test can be described thus: Inhibition of human recombinant BRK (174 to 734) at 50 nM by radiometric scintillation counting analysis relative to control.
Protein-tyrosine kinase 6 (Homo sapiens), sequence (Q13882 whole entry, looked up): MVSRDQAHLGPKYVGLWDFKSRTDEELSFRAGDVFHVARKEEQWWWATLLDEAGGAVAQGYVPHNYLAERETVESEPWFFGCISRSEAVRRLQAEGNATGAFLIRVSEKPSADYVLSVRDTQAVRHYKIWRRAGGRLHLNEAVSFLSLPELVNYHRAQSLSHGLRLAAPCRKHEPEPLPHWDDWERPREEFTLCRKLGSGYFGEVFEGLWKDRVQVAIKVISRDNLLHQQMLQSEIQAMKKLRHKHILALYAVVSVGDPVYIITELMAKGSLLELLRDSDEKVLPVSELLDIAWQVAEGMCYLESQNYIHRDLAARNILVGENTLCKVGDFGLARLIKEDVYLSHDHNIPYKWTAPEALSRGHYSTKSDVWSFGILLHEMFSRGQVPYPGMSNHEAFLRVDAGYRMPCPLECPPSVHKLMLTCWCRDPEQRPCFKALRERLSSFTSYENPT
Test [3] has as its target T1, Tyrosine-protein kinase ABL1 (Homo sapiens, UniProt P00519). The experiment in a line: Inhibition of human recombinant ABL1 using ATP/Ulight-TK peptide at 5 nM incubated for 15 mins relative to control.
In test [4] the target is Platelet-derived growth factor receptor beta (Homo sapiens) (UniProt P09619). The experiment in a line: Inhibition of human recombinant PDGFRbeta (557 to end) at 5 nM by radiometric scintillation counting analysis relative to control.
Platelet-derived growth factor receptor beta (Homo sapiens), sequence (P09619 whole entry): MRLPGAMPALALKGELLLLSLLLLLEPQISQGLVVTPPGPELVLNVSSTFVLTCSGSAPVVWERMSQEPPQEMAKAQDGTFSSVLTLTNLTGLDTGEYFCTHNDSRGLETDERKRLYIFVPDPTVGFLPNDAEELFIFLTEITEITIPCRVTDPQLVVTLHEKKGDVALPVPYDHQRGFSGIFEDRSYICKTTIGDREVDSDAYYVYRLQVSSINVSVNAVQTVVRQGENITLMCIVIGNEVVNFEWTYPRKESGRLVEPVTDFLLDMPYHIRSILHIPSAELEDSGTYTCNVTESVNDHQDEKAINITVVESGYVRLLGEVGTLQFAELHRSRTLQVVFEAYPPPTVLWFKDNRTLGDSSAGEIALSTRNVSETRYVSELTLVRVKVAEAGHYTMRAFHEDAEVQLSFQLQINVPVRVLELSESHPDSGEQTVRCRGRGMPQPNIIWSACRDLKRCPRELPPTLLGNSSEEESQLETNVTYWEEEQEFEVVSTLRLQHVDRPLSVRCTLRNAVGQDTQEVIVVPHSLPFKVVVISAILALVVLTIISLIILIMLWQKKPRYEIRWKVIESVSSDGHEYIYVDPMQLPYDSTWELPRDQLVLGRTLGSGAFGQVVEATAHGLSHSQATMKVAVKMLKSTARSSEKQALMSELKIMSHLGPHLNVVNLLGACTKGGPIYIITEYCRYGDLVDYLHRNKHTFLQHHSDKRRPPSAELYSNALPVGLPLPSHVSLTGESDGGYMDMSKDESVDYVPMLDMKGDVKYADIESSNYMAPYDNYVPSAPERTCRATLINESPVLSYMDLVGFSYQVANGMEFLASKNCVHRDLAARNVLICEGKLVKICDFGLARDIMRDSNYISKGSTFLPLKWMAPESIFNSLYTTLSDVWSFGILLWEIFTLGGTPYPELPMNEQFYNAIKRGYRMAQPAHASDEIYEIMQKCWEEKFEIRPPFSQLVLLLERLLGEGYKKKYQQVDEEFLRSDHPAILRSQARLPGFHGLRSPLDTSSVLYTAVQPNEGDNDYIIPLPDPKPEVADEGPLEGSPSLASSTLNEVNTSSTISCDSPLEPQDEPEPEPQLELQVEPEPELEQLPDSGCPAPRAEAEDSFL
Test [5] has as its target Tyrosine-protein kinase BTK (Homo sapiens) (UniProt Q06187). The experiment in a line: Inhibition of human full length recombinant BTK at 500 nM by radiometric scintillation counting analysis relative to control.
Test [6] deals with T2, Tyrosine-protein kinase Lck (Homo sapiens, UniProt P06239). The experiment in a line: Inhibition of human full length recombinant LCK at 50 nM by radiometric scintillation counting analysis relative to control.
T2 sequence (P06239 2-509 limits assumed): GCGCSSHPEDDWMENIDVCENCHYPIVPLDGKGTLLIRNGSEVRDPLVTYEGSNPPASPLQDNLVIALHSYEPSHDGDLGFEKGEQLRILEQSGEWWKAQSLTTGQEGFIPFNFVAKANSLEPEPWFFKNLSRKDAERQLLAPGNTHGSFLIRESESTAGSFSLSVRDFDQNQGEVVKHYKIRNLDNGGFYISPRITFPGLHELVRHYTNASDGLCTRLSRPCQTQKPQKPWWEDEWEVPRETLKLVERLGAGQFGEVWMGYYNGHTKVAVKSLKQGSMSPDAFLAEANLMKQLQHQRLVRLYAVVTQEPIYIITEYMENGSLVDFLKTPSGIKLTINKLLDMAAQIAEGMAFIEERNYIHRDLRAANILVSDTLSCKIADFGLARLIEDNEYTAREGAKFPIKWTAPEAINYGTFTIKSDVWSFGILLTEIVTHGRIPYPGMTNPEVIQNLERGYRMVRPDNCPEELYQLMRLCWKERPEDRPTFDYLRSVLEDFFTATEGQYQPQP
For test [7], the target named is Platelet-derived growth factor receptor alpha (Homo sapiens) (UniProt P16234). The test can be described thus: Inhibition of human recombinant PDGFRalpha (550 to end) at 50 nM by radiometric scintillation counting analysis relative to control.
Platelet-derived growth factor receptor alpha (Homo sapiens), sequence (P16234 whole entry): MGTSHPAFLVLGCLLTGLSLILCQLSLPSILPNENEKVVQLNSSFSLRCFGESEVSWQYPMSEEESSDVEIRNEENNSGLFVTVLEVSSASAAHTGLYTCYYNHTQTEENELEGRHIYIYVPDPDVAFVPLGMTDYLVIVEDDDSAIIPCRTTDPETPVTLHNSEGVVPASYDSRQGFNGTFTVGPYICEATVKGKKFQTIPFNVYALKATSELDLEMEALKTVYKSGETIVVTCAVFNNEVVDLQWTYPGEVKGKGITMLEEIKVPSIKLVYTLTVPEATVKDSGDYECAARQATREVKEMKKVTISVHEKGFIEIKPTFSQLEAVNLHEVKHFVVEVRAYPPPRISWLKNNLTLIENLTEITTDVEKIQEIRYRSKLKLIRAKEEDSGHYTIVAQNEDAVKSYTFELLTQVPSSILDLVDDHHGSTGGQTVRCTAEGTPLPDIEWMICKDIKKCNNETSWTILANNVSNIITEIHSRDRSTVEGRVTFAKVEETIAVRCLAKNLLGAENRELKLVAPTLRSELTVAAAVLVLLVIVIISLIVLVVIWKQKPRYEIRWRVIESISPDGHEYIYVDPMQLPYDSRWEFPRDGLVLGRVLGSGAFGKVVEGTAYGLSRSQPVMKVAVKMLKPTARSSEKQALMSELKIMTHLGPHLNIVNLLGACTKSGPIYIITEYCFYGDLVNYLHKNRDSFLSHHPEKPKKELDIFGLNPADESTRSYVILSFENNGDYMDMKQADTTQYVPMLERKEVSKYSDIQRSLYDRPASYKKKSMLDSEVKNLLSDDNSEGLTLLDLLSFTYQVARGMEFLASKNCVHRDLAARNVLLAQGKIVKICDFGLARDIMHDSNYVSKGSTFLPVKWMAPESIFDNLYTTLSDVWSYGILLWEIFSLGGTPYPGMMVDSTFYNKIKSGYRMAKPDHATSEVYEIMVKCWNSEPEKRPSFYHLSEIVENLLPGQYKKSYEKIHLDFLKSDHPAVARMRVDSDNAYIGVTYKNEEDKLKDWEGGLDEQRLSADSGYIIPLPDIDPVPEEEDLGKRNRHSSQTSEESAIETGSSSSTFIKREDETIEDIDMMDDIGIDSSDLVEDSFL
The target of test [8] is Tyrosine-protein kinase SYK (Homo sapiens) (UniProt P43405). The test can be described thus: Inhibition of human full length recombinant Syk at 500 nM by radiometric scintillation counting analysis relative to control.
The subject of test [9] is RBL-2H3. The experiment in a line: Antiallergic activity against anti-DNP-IgE sensitized rat RBL-2H3 cells assessed as […] of degranulation by measuring beta-hexosaminidase release using P-nitrophenyl-N-acetyl-D-glucosamide as substrate measured after 1 hr by microplate reader. The test is classed as functional, cell-based. The settings on record: RBL-2H3, 1 h.
The target of test [10] is T3, Tyrosine-protein kinase TXK (Homo sapiens) (UniProt P42681).
T3 sequence (whole entry): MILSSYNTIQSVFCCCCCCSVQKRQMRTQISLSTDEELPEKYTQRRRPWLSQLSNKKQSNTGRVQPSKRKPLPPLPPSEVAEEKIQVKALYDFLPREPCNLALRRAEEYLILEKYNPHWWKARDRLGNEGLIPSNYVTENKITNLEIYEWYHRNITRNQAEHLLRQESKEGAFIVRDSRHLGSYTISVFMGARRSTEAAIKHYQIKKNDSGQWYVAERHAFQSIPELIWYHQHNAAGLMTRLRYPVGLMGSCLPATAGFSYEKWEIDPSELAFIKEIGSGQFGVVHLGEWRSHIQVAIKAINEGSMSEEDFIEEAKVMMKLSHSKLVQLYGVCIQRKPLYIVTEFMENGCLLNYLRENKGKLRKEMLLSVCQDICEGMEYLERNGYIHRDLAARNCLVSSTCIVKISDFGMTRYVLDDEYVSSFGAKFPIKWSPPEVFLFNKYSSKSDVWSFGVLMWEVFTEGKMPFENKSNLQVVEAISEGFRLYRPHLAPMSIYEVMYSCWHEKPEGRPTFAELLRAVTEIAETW
The experiment in a line: Inhibition of human recombinant […] (256 to end) at 50 nM by radiometric scintillation counting analysis relative to control.

The target in test [11] is Tyrosine-protein kinase Srms (Homo sapiens, UniProt Q9H3Y6). The test can be described thus: Inhibition of human SRMS at 5 nM by radiometric scintillation counting analysis relative to control.
The target of test [12] is T4, Macrophage colony-stimulating factor 1 receptor (Homo sapiens, UniProt P07333). The experiment in a line: Inhibition of human recombinant CSF1R using ATP/Ulight-TK peptide at 50 nM incubated for 15 mins relative to control.
In test [13] the target is Tyrosine-protein kinase HCK (Homo sapiens, UniProt P08631). The experiment in a line: Inhibition of human recombinant HCK (230 to 497) at 500 nM by radiometric scintillation counting analysis relative to control.
Tyrosine-protein kinase HCK, sequence (P08631 2-526 limits assumed): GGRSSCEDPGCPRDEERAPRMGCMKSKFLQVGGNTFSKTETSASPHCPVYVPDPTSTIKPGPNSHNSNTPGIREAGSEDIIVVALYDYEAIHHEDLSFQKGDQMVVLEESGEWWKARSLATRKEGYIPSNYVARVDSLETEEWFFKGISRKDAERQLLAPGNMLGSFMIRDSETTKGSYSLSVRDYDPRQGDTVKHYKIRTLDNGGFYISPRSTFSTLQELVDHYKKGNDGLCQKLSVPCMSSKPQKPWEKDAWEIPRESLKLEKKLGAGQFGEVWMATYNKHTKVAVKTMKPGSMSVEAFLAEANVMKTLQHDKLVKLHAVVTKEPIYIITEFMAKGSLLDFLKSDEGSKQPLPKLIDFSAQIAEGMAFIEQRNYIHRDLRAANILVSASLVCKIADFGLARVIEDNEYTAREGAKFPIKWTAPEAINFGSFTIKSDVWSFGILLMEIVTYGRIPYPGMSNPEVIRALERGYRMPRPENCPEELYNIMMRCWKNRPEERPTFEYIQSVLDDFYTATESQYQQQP
The target in test [14] is T5, Proto-oncogene tyrosine-protein kinase Src (Homo sapiens, UniProt P12931). The test can be described thus: Inhibition of human recombinant Src (1-530) at 50 nM by radiometric scintillation counting analysis relative to control.
The target of test [15] is T2, Tyrosine-protein kinase Lck. The experiment in a line: Inhibition of human full length recombinant LCK at 5 nM by radiometric scintillation counting analysis relative to control.
Test [16] concerns the target T4, Macrophage colony-stimulating factor 1 receptor. The test can be described thus: Inhibition of human recombinant CSF1R using ATP/Ulight-TK peptide at 500 nM incubated for 15 mins relative to control.
For test [17], the target named is Tyrosine-protein kinase Yes (Homo sapiens, UniProt P07947). The experiment in a line: Inhibition of human full length recombinant Yes at 500 nM by radiometric scintillation counting analysis relative to control.
Tyrosine-protein kinase Yes, sequence (P07947 2-543 limits assumed): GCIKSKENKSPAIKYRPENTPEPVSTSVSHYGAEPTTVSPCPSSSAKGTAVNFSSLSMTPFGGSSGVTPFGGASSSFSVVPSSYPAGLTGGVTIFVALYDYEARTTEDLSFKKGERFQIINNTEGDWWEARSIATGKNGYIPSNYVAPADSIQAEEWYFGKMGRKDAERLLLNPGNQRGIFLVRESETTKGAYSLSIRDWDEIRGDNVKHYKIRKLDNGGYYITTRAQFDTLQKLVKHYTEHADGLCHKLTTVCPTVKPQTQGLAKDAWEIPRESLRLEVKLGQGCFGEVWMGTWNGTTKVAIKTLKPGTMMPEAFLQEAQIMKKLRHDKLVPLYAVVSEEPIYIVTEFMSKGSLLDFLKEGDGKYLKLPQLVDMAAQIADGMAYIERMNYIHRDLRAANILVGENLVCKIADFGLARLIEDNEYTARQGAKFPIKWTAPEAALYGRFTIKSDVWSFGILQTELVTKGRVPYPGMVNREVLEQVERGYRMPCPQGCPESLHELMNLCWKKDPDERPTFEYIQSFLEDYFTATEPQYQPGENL
Test [18] concerns the target T1, Tyrosine-protein kinase ABL1. The test can be described thus: Inhibition of human recombinant ABL1 using ATP/Ulight-TK peptide at 50 nM incubated for 15 mins relative to control.
Test [19] addresses T5, Proto-oncogene tyrosine-protein kinase Src. The test can be described thus: Inhibition of human recombinant Src (1-530) at 500 nM by radiometric scintillation counting analysis relative to control.
Test [20] concerns the target Mast/stem cell growth factor receptor Kit (Homo sapiens) (UniProt P10721). The experiment in a line: Inhibition of human recombinant c-Kit at 500 nM by radiometric scintillation counting analysis relative to control.
Test [21] deals with Protein-tyrosine kinase 6 (Homo sapiens) (UniProt Q13882). The test can be described thus: Inhibition of human recombinant BRK (174 to 734) at 500 nM by radiometric scintillation counting analysis relative to control.
In test [22] the target is Tyrosine-protein kinase JAK1 (Homo sapiens) (UniProt P23458). The test can be described thus: Inhibition of human recombinant JAK1 at 50 nM radiometric scintillation counting analysis relative to control.
Test [23] addresses Tyrosine-protein kinase Blk (Homo sapiens, UniProt P51451). The test can be described thus: Inhibition of human full length recombinant BLK at 5 nM by radiometric scintillation counting analysis relative to control.

Tyrosine-protein kinase BTK (Homo sapiens), sequence (Q06187 whole entry): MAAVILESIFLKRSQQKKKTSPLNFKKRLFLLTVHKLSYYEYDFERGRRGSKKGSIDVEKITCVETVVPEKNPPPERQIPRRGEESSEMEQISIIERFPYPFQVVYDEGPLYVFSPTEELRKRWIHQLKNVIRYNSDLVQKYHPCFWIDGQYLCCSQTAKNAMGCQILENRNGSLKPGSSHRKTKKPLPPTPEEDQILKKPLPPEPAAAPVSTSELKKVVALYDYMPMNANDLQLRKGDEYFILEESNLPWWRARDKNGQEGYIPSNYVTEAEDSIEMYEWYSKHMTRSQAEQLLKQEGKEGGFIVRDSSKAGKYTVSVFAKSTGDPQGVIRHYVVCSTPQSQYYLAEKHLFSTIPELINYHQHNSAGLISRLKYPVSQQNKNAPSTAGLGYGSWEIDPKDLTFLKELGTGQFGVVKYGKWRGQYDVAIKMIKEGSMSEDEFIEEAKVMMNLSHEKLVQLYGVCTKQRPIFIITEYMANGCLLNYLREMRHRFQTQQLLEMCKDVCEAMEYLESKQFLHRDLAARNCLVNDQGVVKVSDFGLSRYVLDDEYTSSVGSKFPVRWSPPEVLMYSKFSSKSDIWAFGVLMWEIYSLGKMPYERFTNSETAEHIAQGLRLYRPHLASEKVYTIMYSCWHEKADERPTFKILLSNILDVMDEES

Usually inhibition stands for the drop in the measured response relative to a control, in per cent. Usually IC50 stands for the concentration needed to halve the response being measured. On to `Cc1ccc(C(=O)Nc2ccc(OC(F)(F)F)cc2)cc1C#Cc1cc(-c2cnn(C)c2)cnc1N`, for which the inhibition in [1] was 7%; in test [2], 52%; in test [3] it was 58%; in test [4], 1%; in test [5] it was -2%; in test [6], 98%. Further, the inhibition in test [7] was 32%; in test [8], 9%; in test [10], 18%; in test [11], -1%; in test [12], 69%; in test [13], 93%. In addition, the inhibition in [14] was found to be 95%; in test [15] it was 42%; in test [16], 90%; in test [17], 94%; in test [18], 96%; in test [19] it was 96%. For the same molecule, the inhibition in test [20] worked out at 65%; in [21], 92%; in test [22], 8%; in test [23], 21%. Moreover, the IC50 in [9] was 3.71 nM.
For the molecule `Cc1ccc(C(=O)Nc2cc(C(F)(F)F)cc(C(F)(F)F)c2)cc1C#Cc1cc(-c2cnn(C)c2)cnc1N`, the inhibition is 1% in test [1]; 1% in [2]; 22% in [3]; 18% in test [4]; 49% in [5]; 60% in test [6]. Also, the inhibition in test [7] is 1%; in test [8], 2%; in test [10], 60%; in [11], 20%; in [12], 83%; in test [13], 97%. Moreover, the inhibition is 98% in [14]; 26% in [15]; 96% in [16]; 98% in test [17]; 88% in [18]; 92% in test [19]. Further, the inhibition was 17% in [20], 22% in test [21], 37% in test [22] and 22% in [23]. For the same molecule, the IC50 in test [9] came out at 9.32 nM.
Consider `Cc1ccc(C(=O)Nc2ccc(Cl)cc2Cl)cc1C#Cc1cc(-c2cnn(C)c2)cnc1N`, for which the inhibition in test [1] was -6%; in test [2] it was 39%; in test [3], 32%; in test [4] it was 12%; in test [5], 11%; in [6], 59%. Also, the inhibition in test [7] amounted to 21%; in test [8] it was 8%; in [10] it was 5%; in test [11] it was 7%; in test [12], 94%; in [13] it was 89%. Besides, the inhibition in test [14] came to 49%; in test [15] it was 27%; in [16] it was 98%; in test [17], 39%; in [18] it was 64%; in test [19] it was 79%. The inhibition in test [20] is 56%; in [21] it was 85%; in test [22] it was -6%; in [23], 7%. Besides, the IC50 in [9] is more than 1000 nM.
